Experimental data from patent publication EP0597838B1, “VACCINE COMPOSITIONS” (NORTH AMERICAN VACCINE, INC., priority 1990, dated 1991).
Structures can show the parent of a compound that is named as a salt.

Key:
[1] = C.L. Penney et al, Vaccine 4, 1986; cited from earlier work
[2] = system: hepatitis B surface antigen; experiment: Antibody response to hepatitis B surface antigen with octadecyl amino acid immunoadjuvants, radioimmunoassay of sera; format: in vivo, BALB/c mice; details: 50 ng HBsAg i.m. day 1, boost 35 ng day 21, 100 µg octadecyl amino acid
Description: (§1) BALB/c mice were immunized with 50 ng of hepatitis B surface antigen in the presence of adjuvant for the non-control mice and in the absence of adjuvant for the control mice. The hepatitis B surface antigen was obtained from 3T3 cells transfected with the gene for the surface antigen. 100 µg of octadecyl amino acid was complexed with the polypeptide as described in Example 2. This mixture, in a total volume of 0.1 ml, was injected on day 1 using an intramuscular route, and the mice were bled on days 7, 14, 21, 28, 35, 42 and 61. The mice were boosted with 35 ng of the polypeptide on day 21.
(§2) The antibody concentration in the sera was determined by radioimmunoassay. The antibody concentration was estimated by comparison with a standard curve obtained using a monoclonal antibody.

[3] = system: hepatitis B surface antigen; experiment: Antibody response to hepatitis B surface antigen as a function of octadecyl tyrosine dose, radioimmunoassay of sera; format: in vivo, BALB/c mice; details: 80 ng HBsAg, boost 50 ng, pre-bleed value 11.5
Description: as §1, §2
The immunizations were carried out in the presence of adjuvant for the non-control mice and in the absence of adjuvant for the control mice.

[4] = system: hepatitis B surface antigen; experiment: Isotype of the anti-hepatitis B surface antigen antibody response, radioimmunoassay with tritium labelled anti-mouse isotype antibody; format: in vivo, mice; details: for IgE, radioactivity of bound isotype antibody / IgG1, radioactivity of bound isotype antibody / IgG2a, radioactivity of bound isotype antibody / IgG2b, radioactivity of bound isotype antibody / IgG3, radioactivity of bound isotype antibody / IgM, radioactivity of bound isotype antibody: immunization on day 1 and 21, 50 µg of octadecyl tyrosine
Description: The protocol was as described in Example 5, Section 2 (mice) except that 50 µg of octadecyl tyrosine was used for both the primary and secondary (day 21) immunizations. The isotype of the antibody response was determined by radioimmunoassay. Use was made of tritium labelled anti-mouse isotype antibody. Titration was undertaken by incubation of samples on plates coated with immunoaffinity purified hepatitis B surface antigen.

[5] = system: hepatitis B surface antigen; experiment: Antibody response to hepatitis B surface antigen as a function of octadecyl tyrosine dose, radioimmunoassay of sera; format: in vivo, BALB/c mice; details: day 21, 80 ng HBsAg, boost 50 ng, pre-bleed value 11.5
[6] = system: HIV-1 polypeptide, residues 503-535; experiment: Antibody response to HIV-1 polypeptide 503-535 coupled to KLH in mice, radioimmunoassay of sera; format: in vivo, BALB/c mice; details: 100 µg polypeptide-KLH on day 1 and day 21
Description: 1) HIV Peptide Sequence The peptide sequence of the HIV was as follows. Product: BC-101 503- H-[…] 535 M.W. 3585.14 (Back-bone) 2) Experiments in mice BALB/c mice were immunized with 100 µg of chemically synthesized polypeptide, corresponding to the amino acid sequence of residues 503-535 of HIV-1, coupled to Keyhole Limpet Hemocyanin (KLH). Octadecyl tyrosine hydro-chloride, 10 µg-100 µg, was complexed with the polypeptide as described in Example 2. This mixture, in a total volume of 0.1 ml, was injected on day 1, and again on day 21. The mice were bled on days 7, 14, 21, 28 and 35. The antibody concentration in the sera was determined by radioimmunoassay. The antibody concentration was estimated by comparison with a standard curve obtained using a polyclonal antibody.

CCCCCCCCCCCCCCCCCCOC(=O)C(N)Cc1ccc(O)cc1 (centres unmarked) [Octadecyl Tyrosine, octadecyl tyrosine hydrochloride]
toxicity in animals [1]: non-toxic | Anti-HBsAg antibody concentration ([2]; day 7): 68 ng/mL | Anti-HBsAg antibody concentration ([2]; day 14): 91 ng/mL | Anti-HBsAg antibody concentration ([2]; day 21): 58 ng/mL | Anti-HBsAg antibody concentration ([2]; day 28): 355 ng/mL | Anti-HBsAg antibody concentration ([2]; day 35): 833 ng/mL | Anti-HBsAg antibody concentration ([2]; day 61): 752 ng/mL | Antibody response to hepatitis B surface antigen ([3]; 10 µg adjuvant, day 7): 611 CPM | Antibody response to hepatitis B surface antigen ([3]; 10 µg adjuvant, day 14): 2314 CPM | Antibody response to hepatitis B surface antigen ([3]; 10 µg adjuvant, day 28): 8403 CPM | Antibody response to hepatitis B surface antigen ([3]; 10 µg adjuvant, day 35): 10005 CPM | Antibody response to hepatitis B surface antigen ([3]; 50 µg adjuvant, day 7): 2064 CPM | Antibody response to hepatitis B surface antigen ([3]; 50 µg adjuvant, day 14): 846 CPM | Antibody response to hepatitis B surface antigen ([3]; 50 µg adjuvant, day 28): 18804 CPM | Antibody response to hepatitis B surface antigen ([3]; 50 µg adjuvant, day 35): 20616 CPM | Antibody response to hepatitis B surface antigen ([3]; 100 µg adjuvant, day 7): 1107 CPM | Antibody response to hepatitis B surface antigen ([3]; 100 µg adjuvant, day 14): 537 CPM | Antibody response to hepatitis B surface antigen ([3]; 100 µg adjuvant, day 28): 19679 CPM | Antibody response to hepatitis B surface antigen ([3]; 100 µg adjuvant, day 35): 13427 CPM | IgE, radioactivity of bound isotype antibody ([4]; day of bleed 14): 33±10 cpm | IgG1, radioactivity of bound isotype antibody ([4]; day of bleed 14): 568±32 cpm | IgG2a, radioactivity of bound isotype antibody ([4]; day of bleed 14): 483±44 cpm | IgG2b, radioactivity of bound isotype antibody ([4]; day of bleed 14): 290±31 cpm | IgG3, radioactivity of bound isotype antibody ([4]; day of bleed 14): 144±19 cpm | IgM, radioactivity of bound isotype antibody ([4]; day of bleed 14): 347±37 cpm | IgE, radioactivity of bound isotype antibody ([4]; day of bleed 35): 55±33 cpm | IgG1, radioactivity of bound isotype antibody ([4]; day of bleed 35): 8030±155 cpm | IgG2a, radioactivity of bound isotype antibody ([4]; day of bleed 35): 12331±336 cpm | IgG2b, radioactivity of bound isotype antibody ([4]; day of bleed 35): 4710±115 cpm | IgG3, radioactivity of bound isotype antibody ([4]; day of bleed 35): 333±17 cpm | IgM, radioactivity of bound isotype antibody ([4]; day of bleed 35): 826±8 cpm | IgE, radioactivity of bound isotype antibody ([4]; day of bleed 42): 29±12 cpm | IgG1, radioactivity of bound isotype antibody ([4]; day of bleed 42): 6176±496 cpm | IgG2a, radioactivity of bound isotype antibody ([4]; day of bleed 42): 2271±215 cpm | IgG2b, radioactivity of bound isotype antibody ([4]; day of bleed 42): 1109±77 cpm | IgG3, radioactivity of bound isotype antibody ([4]; day of bleed 42): 165±24 cpm | IgM, radioactivity of bound isotype antibody ([4]; day of bleed 42): 545±87 cpm | levels of IgE antibodies ([4]; in words, compared to the control without adjuvant): no significant increase | Antibody response to hepatitis B surface antigen ([5]; 10 µg adjuvant): 342 CPM | Antibody response to hepatitis B surface antigen ([5]; 50 µg adjuvant): 4000 CPM | Antibody response to hepatitis B surface antigen ([5]; 100 µg adjuvant): 1279 CPM | Anti-peptide antibody concentration ([6]; 10 µg adjuvant, day 7): 1.61 µg/mL | Anti-peptide antibody concentration ([6]; 10 µg adjuvant, day 14): 3.15 µg/mL | Anti-peptide antibody concentration ([6]; 10 µg adjuvant, day 21): 1.49 µg/mL | Anti-peptide antibody concentration ([6]; 10 µg adjuvant, day 28): 85.9 µg/mL | Anti-peptide antibody concentration ([6]; 10 µg adjuvant, day 35): 131.9 µg/mL | Anti-peptide antibody concentration ([6]; 50 µg adjuvant, day 7): 1.18 µg/mL | Anti-peptide antibody concentration ([6]; 50 µg adjuvant, day 14): 0.75 µg/mL | Anti-peptide antibody concentration ([6]; 50 µg adjuvant, day 21): 2.99 µg/mL | Anti-peptide antibody concentration ([6]; 50 µg adjuvant, day 28): 54.2 µg/mL | Anti-peptide antibody concentration ([6]; 50 µg adjuvant, day 35): 86.2 µg/mL | Anti-peptide antibody concentration ([6]; 100 µg adjuvant, day 7): 0.87 µg/mL | Anti-peptide antibody concentration ([6]; 100 µg adjuvant, day 14): 1.65 µg/mL | Anti-peptide antibody concentration ([6]; 100 µg adjuvant, day 21): 2.04 µg/mL | Anti-peptide antibody concentration ([6]; 100 µg adjuvant, day 28): 155.3 µg/mL | Anti-peptide antibody concentration ([6]; 100 µg adjuvant, day 35): 138.0 µg/mL
